In US20040077651A1, “Remedies for cancer” (priority 2000, published 2004):

Each compound was assayed against T1, Human type-X sPLA2 (Homo sapiens, UniProt O15496) (assay: Type-X sPLA2 inhibition test (chromogenic assay, diheptanoylthio PC)). Details: culture supernatant of CHO cells expressing human type-X sPLA2, 30 min at 40° C., absorbance at 405 nm.
T1 construct: made in house; unpurified culture supernatant
T1 sequence (O15496 43-165): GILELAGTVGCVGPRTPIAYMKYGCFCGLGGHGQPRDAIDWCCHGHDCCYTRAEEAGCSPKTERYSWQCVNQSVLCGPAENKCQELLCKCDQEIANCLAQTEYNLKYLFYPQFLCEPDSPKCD
Assay type: biochemical
Source text: cDNA sequence encoding human type-X sPLA2 (Cupillard et al., J. Biol. Chem, 1997, 272, 15745-15752) was inserted into the downstream region of the promoter of pSVL SV40 Late Promoter Expression Vector (Amersham Pharmacia Biotech Inc.) that is an expression vector for mammalian cells. The obtained expression vector was transfected into the host CHO cells with a LipofectAMINE reagent (Gibco BRL Inc.) according to the manufacture's instruction to obtain the CHO cells stably expressing human type-X sPLA2. The transfected cell was cultured in α-MEM medium containing 10% fetal calf serum for 3 days and its culture supernatant was used for the measurement of each enzyme activity.
In order to identify and evaluate an inhibitor of type-X sPLA2, the following chromogenic assay is utilized. This assay has been applied for high volume screening using a 96-well microtiterplate. A general explanation for this assay is described in “Analysis of Human Synovial Fluid Phospholipase A2 on Short Chain Phosphatidylcholine-Mixed Micelles: Development of a Spectrophotometric Assay Suitable for a Micortiterplate Reader” (Analytical Biochemistry, 204, pp 190-197, 1992 by Laure. J. Reynolds. Lori L. Hughes and Edward A. Dennis.
Test compounds (or solvent blank) were added according to the alignment of plates that had been previously set. Human type-X sPLA2 was incubated (30 min at 40° C. (15 μl/well)) with diheptanoylthio PC (1 mM) in the presence of Triton X-100 (0.3 mM) and 5,5′-dithiobis(2-nitrobenzoic acid) (125 μM) in Tris-HCl buffer (25 mM, pH 7.5) containing CaCl2 (10 mM), KCl (100 mM), and bovine serum albumin (1.0 mg/mL). The changes in the absorbance at 405 nm were measured and the inhibition activities were calculated.
The IC50 value was determined by plotting the log concentration of the above-mentioned compounds (1)-(19) with respect to their inhibition values within 10% to 90% inhibitory range.
`CCCc1c(C(=O)C(N)=O)c2c(OCC(=O)O)nc(C)cn2c1CCc1ccccc1` [Compound 6] was tested, and the IC50 was 17 nM.
With `NC(=O)C1=CCCc2c1c1c(OCC(=O)O)cccn1c2Cc1ccccc1` [Compound 7] the IC50 was 5 nM.
In the case of `NC(=O)c1cccc2c1c1c(OCC(=O)O)cc(-c3ccco3)cc1n2Cc1ccccc1` [Compound 11], the IC50 is reported as 10 nM.
